According to US6552014B2, “Methods of inhibiting platelet activation with selective serotonin reuptake inhibitors” (HeartDrug Research, L.L.C., priority 1999, dated 2003):

How the values were obtained:
human platelets = test: Platelet inhibition / platelet activation state, overall statement; assay type: cell-based; conditions: platelet rich plasma and whole blood
Experimental: Trisodium citrate (3.8%) and whole blood is immediately mixed in a 1:9 ratio, and then centrifuged at 1200 g for 2.5 minutes, to obtain platelet-rich plasma (PRP), which is kept at room temperature for use within 1 hour for platelet aggregation studies. Platelet count is determined in each PRP sample with a Coulter Counter ZM (Coulter Co., Hialeah, Fla.). Platelet numbers are adjusted to 3.50×10^8/ml for aggregation with homologous platelet-poor plasma. PRP and whole blood aggregation tests are performed simultaneously. Whole blood is diluted 1.1 with the 0.5 ml PBS, and then swirled gently to mix . […] Platelet aggregability are expressed as the percentage of light transmittance change from baseline using platelet-poor plasma as a reference at the end of recording time for plasma samples, or as a change in electrical impedance for whole blood samples. Aggregation curves are recorded for 4 minutes and analyzed according to internationally established standards using Aggrolinkg® software.
Venous blood (8 ml) was collected in a plastic tube containing 2 ml of acid-citrate-dextrose (ACD) (7.3 g citric acid, 22.0 g sodium citrate×2H2O and 24.5 glucose in 1000 ml distilled water) and mixed well. […] Samples were stored in the refrigerator at +4 °C, and analyzed on a Becton Dickinson FACScan flow cytometer with laser output of 15 mw, excitation at 488 nm, and emission detection at 530±30 nm. […]

PECAM-1 = test: Flow cytometry of platelet antigen expression, platelet rich plasma; assay type: cell-based, human; conditions: PRP, desmethylsertraline 64.2 ng/ml
[1] = post-angioplasty patient on aspirin

N[C@H]1CC[C@@H](c2ccc(Cl)c(Cl)c2)c2ccccc21 [Desmethyl sertraline, N-desmethylsertraline]
platelet inhibition / platelet activation state, in words (human platelets): potent dose-dependent effects inhibiting human platelets
platelet inhibition / platelet activation state, in words (human platelets; listed as NDMS): significantly reduces the platelet activation state
PECAM-1 (peak) log fluorescence intensity (PECAM-1; healthy volunteers): 91
PECAM-1 (mean) log fluorescence intensity (PECAM-1; [1]): 105
PECAM-1 (peak) log fluorescence intensity (PECAM-1; [1]): 84
